Experiments:
[1] = tested on: renal cell carcinoma (RCC) xenografts; conditions: cited from earlier work
786-0 RCC xenografts = test: Murine 786-0 RCC xenograft model; assay type: in vivo, mice; conditions: for effects on tumor growth / MDSC infiltration of tumors: 786-0 xenografts; for effects on tumor growth: nude/beige mice, tumors measured on day 7, FIG. 1A; for MDSC infiltration of tumors: CD11b+ GR-1+ cells, FIGS. 5A, 5C
Procedure: (§1) With each of the human cell lines, 1×10^7 tumor cells were implanted subcutaneously in the flanks of 36 nude/beige mice and tumors allowed to grow to roughly 7 mm in diameter. […] Therefore, on day 7, the mice were sacrificed and the tumors were measured and immediately excised and divided into three parts. One part of each tumor was paraffin-embedded for dual color immunofluorescence. Another part was mechanically disaggregated and treated with collagenase/DNAse to generate a single cell suspension for flow cytometry. The third part was frozen for future pharmacokinetic analysis. Microscope slides were made from the paraffin-embedded tumor tissue, which were stained with antibodies against CD11b, Gr-1, and FAP. The number of infiltrating CD11b+/Gr-1+ MDSC and FAP+ fibroblasts present in the tumor tissue was then determined by immunofluorescence (IF) as previously described (1).
(§2) The disaggregated tumor specimens were analyzed for CD11b+/Gr-1+ MDSC and FAP+ fibroblasts by flow cytometry. The fraction of both populations expressing CXCR4 were also determined. At the time the mice were sacrificed, the spleens were removed and cut in half. One part was disaggregated into single cell suspensions and analyzed by flow cytometry as above for MDSC. The second half was frozen for future analyses, such as PK analysis. Finally, a bone marrow (BM) sample was generated by extruding marrow from an excised femur with a syringe filled with saline and analyzed by flow cytometry for MDSC.

A498 RCC xenografts = test: Murine A498 RCC xenograft model; assay type: in vivo, mice; conditions: for MDSC infiltration of tumors: CD11b+ GR-1+ cells, FIGS. 5B, 5D; for effects on tumor growth: nude/beige mice, tumors measured on day 7, FIG. 1B
Procedure: as §1, §2

[2] = over the range pH 1.1 to pH 7.8; cited from earlier work
[3] = cited from earlier work
[4] = oral axitinib; see current product label; cited from earlier work
786 cells = 786 cells treated in vitro for 24 hours, normoxic and hypoxic (1% O2); assay type: cell-based, human; conditions: 786 hypoxic cells in vitro
Description: FIG. 14B illustrates mir-30a and mir-30c microRNA and (FIG. 14C) total HIF-2α, RNA expression from the same cells from FIG. 14A.

A375 cells = A375 cells with or without constitutively active Stat3 construct, treated 24 h; assay type: cell-based; conditions: A375 cells +/- constitutively active Stat3, 24 h, normoxic or hypoxic; FIG. 15
Description: FIG. 15A illustrates Western blot results from lysates of A375 cells or A375 cells transfected with a constitutively active Stat3 construct. […] Without wishing to be bound by theory, it is believed that Stat3 is important in promoting CXCL-12 mediated invasion of tumors.

[5] = Phase 1 and 2a trials; cited from earlier work

Row | Compound | development of sunitinib resistance ([1]; MI-319 given concurrently with sunitinib) | infiltration of RCC xenografts with CD11b+/Gr-1+ MDSC ([1]; earlier work by some of the inventors, MI-319 given concurrently with sunitinib) | HIF-2 expression ([1]; earlier work of the inventors) | micro-RNAs mir-30a and mir-30c expression (786-0 RCC xenografts; 786-0 xenograft tumor, after 8 days of treatment, FIG. 12) | effects on tumor growth (786-0 RCC xenografts) | MDSC infiltration of tumors (786-0 RCC xenografts) | MDSC infiltration of tumors (A498 RCC xenografts) | effects on tumor growth (A498 RCC xenografts) | solubility in aqueous media [2] [µg/mL] | pKa [3] | absorption, effect of food [4] | level of HIF-2α (786-0 RCC xenografts; 786 xenograft tumors, Western blots, 8 days of treatment, FIGS. 11, 13) | mir-30a and mir-30c microRNA (786 cells; FIG. 14B) | HIF-2α (786 cells; FIGS. 14A, 14C) | suppression of HIF-2α and induction of mir-30a and 30c (A375 cells) | pharmacodynamic activity: circulating white blood cells (WBCs) [5] | volume of distribution (VL) [5]
1 | MI-319 | prevented | prevented | suppresses | – | – | – | – | – | – | – | – | – | – | – | – | – | –
2 | CNC(=O)c1ccccc1Sc1ccc2c(/C=C/c3ccccn3)n[nH]c2c1 [axitinib, N-methyl-2-[3((E)-2-pyridin-2-yl-vinyl)-1H-indazol-6-ylsulfanyl]-benzamide] | – | – | – | suppressed | no | extensive MDSC infiltration | extensive MDSC infiltration | no | > 0.2 | 4.8 | not altered by food | – | – | – | – | – | –
3 | NCCCCN(Cc1nc2ccccc2[nH]1)[C@H]1CCCc2cccnc21 [X4P-001] | – | – | – | – | modest | significantly less MDSC infiltration | significantly less MDSC infiltration | modest | – | – | – | reduction in the level of HIF-2α relative to that caused by axitinib treatment | mir-30a and mir-30c induction | HIF-2α reduction | dependent on Stat3 expression | dose- and concentration-related changes | high

— patent US10953003B2, “Methods for treating cancer” (X4 Pharmaceuticals, Inc., priority 2015, dated 2021)
